Results reported in paper PMC6905855, “Agonist-specific voltage-dependent gating of lysosomal two-pore Na^+ channels” (eLife, 2019).
Several values for one entry are separate records, joined by “and”; a condition that tells them apart may be missing. Equal entries are not always repeated. Entries after “also recorded” stand apart in the source; their conditions may differ. Blank lines part the entries; values can stand above or below the molecule they belong to.

What was measured:
[1] = target: T1, surface-expressing mutant TPC2 channel (TPC2^LL/AA) in HEK293 cells (Homo sapiens, UniProt Q8NHX9, L11A/L12A); experiment: Whole-cell recordings of ITPC2-LL/AA; assay type: cell-based; details: for current density: whole cell recordings, individual recordings
T1 construct: expressed in transfected cells; host or cells: HEK293
T1 sequence (Q8NHX9 whole entry L11A/L12A): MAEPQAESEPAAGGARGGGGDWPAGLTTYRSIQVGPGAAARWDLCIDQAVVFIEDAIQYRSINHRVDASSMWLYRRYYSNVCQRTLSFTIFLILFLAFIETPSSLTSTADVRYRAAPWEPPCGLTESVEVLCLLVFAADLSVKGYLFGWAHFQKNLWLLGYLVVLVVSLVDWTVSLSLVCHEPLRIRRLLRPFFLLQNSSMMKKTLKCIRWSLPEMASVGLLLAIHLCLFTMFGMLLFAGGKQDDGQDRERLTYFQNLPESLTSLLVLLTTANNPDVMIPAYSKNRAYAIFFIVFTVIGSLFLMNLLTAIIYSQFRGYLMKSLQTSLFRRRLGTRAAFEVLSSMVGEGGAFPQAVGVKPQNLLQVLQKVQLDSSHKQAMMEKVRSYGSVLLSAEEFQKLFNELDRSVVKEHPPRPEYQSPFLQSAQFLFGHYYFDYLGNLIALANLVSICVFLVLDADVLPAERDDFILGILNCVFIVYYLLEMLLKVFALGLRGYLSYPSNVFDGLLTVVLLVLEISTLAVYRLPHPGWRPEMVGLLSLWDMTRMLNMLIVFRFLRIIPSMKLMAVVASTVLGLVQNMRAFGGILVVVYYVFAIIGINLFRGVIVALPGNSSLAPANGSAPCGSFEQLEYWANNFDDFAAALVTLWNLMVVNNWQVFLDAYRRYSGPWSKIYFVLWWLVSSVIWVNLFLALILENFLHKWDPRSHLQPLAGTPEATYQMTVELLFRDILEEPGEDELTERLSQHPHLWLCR
Excerpt: We therefore characterized the responses of TPC2 channels to TCAs in detail using electrophysiological methods. We first performed whole-cell recordings in HEK293 cells that were transfected with surface-expressed TPC2 mutant channels (TPC2-L^11L^12-AA; abbreviated as TPC2^LL/AA hereafter).
(§1) All TPC1 and TPC2 mutants were generated with a site-directed mutagenesis kit (Qiagen) using EGFP- human TPC1 and TPC2 as the templates. All constructs were confirmed by DNA sequencing.
Cells were transfected with Lipofectamine 2000 (Invitrogen). After culture media were refreshed 18–24 hr post-transfection, cells were used for the electrophysiological assays 24–36 hr post-transfection.
All bath solutions were applied via a perfusion system that allowed complete solution exchange within a few seconds. […] Whole-cell currents were digitized at 10 kHz and filtered at 2 kHz.

hTPC1 = target: T2, hTPC1 (Homo sapiens, UniProt Q9ULQ1); experiment: Whole-endolysosome recordings of ITPC1; assay type: biochemical
T2 construct: expressed in transfected cells; host or cells: Cos1
Experimental: It was therefore of interest to explore whether TCAs/LyNa-VAs could also act on TPC1. To investigate this, we used two different voltage paradigms. […] Second, we used a tail current paradigm to measure the amplitude of the peak inward current at −120 mV following prolonged steps to various potentials (Figure 4E).
Figure 4. […] HP = 0 mV. […] Dotted lines in A indicate where the currents were measured. […] Data are presented as Mean ± S.E.M (n = 3 patches). […] (G) Normalized I-V plots of basal voltage-dependent currents in WT TPC1- and TPC1^R540I-transfected cells. […] Figure 4—source data 1. […] Figure 4—figure supplement 1. […] (A) A voltage protocol that elicited ITPC1 tail currents as shown in Figure 4E (from −140 to 100 mV with a ∆V = 20 mV, 1 s with a 10 s inter-step interval). Arrows indicate where tail currents were measured. (B) A voltage protocol that elicited ITPC1 tail currents as shown in C. […] HP = 0 mV. […] (A) Basal whole-endolysosome ITPC1 (left) or ITPC1-R540I (right) was elicited by voltage steps (−140 to +100 mV with ΔV = 20 mV) in the absence of PI(3,5)P2 in TPC1-transfected Cos1 cells ([She et al., 2019]). Tail currents were elicited at −120 mV. (B) The effects of PI(3,5)P2 (0.3 µM) on ITPC1 (left) and ITPC1-R540I (right) step currents. […] A preconditioning voltage (+80 mV, 0.1 s) was applied before voltage steps starting from −140 to 100 mV (0.5 s, ∆V = 20 mV).
as §1
(§2) Whole-endolysosome recordings were performed on manually isolated enlarged endolysosomes ([Wang et al., 2012]). In brief, a patch pipette was pressed against a cell and quickly pulled away to slice the cell membrane. Enlarged endolysosomes were released into a dish and identified by monitoring EGFP-TPC1/2 or the mCherry-TPC1/2 fluorescence. After formation of a gigaseal between the patch pipette and the enlarged endolysosome, capacitance transients were compensated. Voltage steps of several hundred mVs with millisecond duration were then applied to break into the vacuolar membrane. The whole-endolysosome configuration was verified by the re-appearance of capacitance transients after break-in.
(§3) Data were collected using an Axopatch 200A patch clamp amplifier, Digidata 1440, and pClamp 10.2 software (Axon Instruments). Whole-endolysosome currents were digitized at 10 kHz and filtered at 2 kHz. All experiments were conducted at room temperature (21–23°C), and all recordings were analyzed with pClamp 10.2, and Origin 8.0 (OriginLab, Northampton, MA). The permeability to cations (relative to PNa) was estimated based on following equations ([Lewis, 1979]) and Erev measurement under bi-ionic conditions:(1) PX/PNa=γNa/γX{[Na^+]Luminal/[X^+]Cytoplasmic}{exp([…])} (2) PCa/PNa=γNa/γCa{[Na^+]Cytoplasmic/[4[Ca^2+]Luminal}{exp(ErevF/RT)}{1+exp(ErevF/RT)} where R, T, F, Erev, and γ are, respectively, the gas constant, absolute temperature, Faraday constant, reversal potential, and activity coefficient. The liquid junction potentials were measured and corrected as described ([Neher, 1992]).

hTPC2 = target: T3, hTPC2 (Homo sapiens, UniProt Q8NHX9); experiment: Whole-endolysosome recordings of ITPC2; assay type: biochemical; details: for inactivation of ITPC2, I500ms / I10ms: @-120mV; for PX / PNa, Ca2+ / PX / PNa, K+ / PX / PNa, Na+: TPC2 WT, agonist-activated ITPC2
T3 construct: expressed in transfected cells; host or cells: Cos1 and HEK293
T3 sequence (Q8NHX9 whole entry): as the sequence (Q8NHX9 whole entry L11A/L12A) above, with A11L, A12L counted along it

TPC1/2 DKO HAP1 cells = experiment: Whole-endolysosome recordings in TPC1/2 DKO HAP1 cells; assay type: biochemical, human
Excerpt: TCAs, with a general structure of an aromatic greasy core and an aliphatic chain containing a terminal amine, are lysosomotropic compounds that are known to be highly accumulating in the lysosomes due to proton trapping ([Beckmann et al., 2014]). We next tested the effects of LyNa-VAs in hTPC2-transfected Cos1 and HEK293 cells using whole-endolyosome patch-clamp.
Data are presented as Mean ± S.E.M (n = 3 patches). […] For panels B, D and F, individual data and Mean ± S.E.M are presented. *, p<0.05; **, p<0.01; ***, p<0.001; N.S., no significance. Figure 3—source data 1. […] Figure 3—figure supplement 1. […] Both individual data points and Mean ± S.E.M are presented (n ≥ 3 patches; also see individual data in Figure 3—figure supplement 1—source data 1). Figure 3—figure supplement 1—source data 1.
TPC1 and TPC2 CRISPR KO cells were generated in HAP1 cells using the CRISPR/Cas9 system. The TPC1 sequence (5'cttgcagtacttcagcaccc3', TPC1-sgRNA) and TPC2 sequence (5'ccccagcgtcgggctgctgc3', TPC2-sgRNA) were targeted with pSpCas9 (BB)−2A-puro vector (Addgene). HAP1 cells were co-transfected with TPC1 and TPC2-sgRNA expressing vector in the presence of Lipofectamine 2000 (In vitrogen) and selected with 2 μg/ml puromycin for 48 hr. The remaining cells were trypsinized and seeded into 96-well plate after a limiting dilution. When single cell clones were established, their genomic DNAs were extracted and amplified with following primers: TPC1-fw: 5’atggcccagacatgtgactc3’, TPC1-re: 5’ tgcctgtctccatcctctca3’; TPC2-fw: 5’tgagctgagcatgaggcaag3’, TPC2-re: 5’ aaaggacaagtggccctgag3’. The PCR amplicons were then sequenced to confirm the intended genetic disruption.
as §2
as §3, with “coefficient.” for “coefficient. The liquid junction potentials were measured and corrected as described ([Neher, 1992]).”

[2] = system: surface-expressing mutant TRPML1 channels (TRPML1^4A); experiment: Whole-cell recordings of ITRPML1-4A; assay type: cell-based; details: TRPML1-4A wc; individual cells
hTPC1^R540I = system: T4, hTPC1^R540I; experiment: Whole-endolysosome recordings of ITPC1-R540I; assay type: biochemical, human
T4 construct: expressed in transfected cells; host or cells: Cos1

TPC2^N653G = system: T5, TPC2^N653G; experiment: Whole-endolysosome recordings of ITPC2-N653G; assay type: biochemical, human; details: TPC2 N653G, agonist-activated current
T5 construct: expressed in transfected cells

[3] = PI(3,5)P2 0.3 µM, LyNa-VA1.2 100 µM, LyNA1 300 µM, individual tests, listed as pip2

- activation of whole-cell ITPC2-LL/AA (in words) ([1]; bath application, symmetric Na^+, 100 µM where stated): ITPC2 was evoked
- current density ([1]; 5 µM): 7.8 pA/pF
- EC50 ([1]; whole-cell recordings at −140 mV, TPC2^LL/AA-transfected HEK293 cells, read-out: EC50): 60 ± 2 µM
- effect on whole-endolysosome ITPC1 (in words) (hTPC1): inhibited ITPC1
- Dose-dependent inhibition of TPC1 (ITPC1, value at 0 µM = 1) (hTPC1; 3 µM, individual patches): 0.9084 and 0.9958 and 1.027
- Dose-dependent inhibition of TPC1 (ITPC1, value at 0 µM = 1) (hTPC1; 3 µM, mean): 0.9772
- Dose-dependent inhibition of TPC1 (ITPC1, value at 0 µM = 1) (hTPC1; 10 µM, individual patches): 0.8547 and 1.003 and 0.8763
- Dose-dependent inhibition of TPC1 (ITPC1, value at 0 µM = 1) (hTPC1; 10 µM, mean): 0.9114
- Dose-dependent inhibition of TPC1 (ITPC1, value at 0 µM = 1) (hTPC1; 30 µM, individual patches): 0.8617 and 0.806 and 0.5194
- Dose-dependent inhibition of TPC1 (ITPC1, value at 0 µM = 1) (hTPC1; 30 µM, mean): 0.729
- Dose-dependent inhibition of TPC1 (ITPC1, value at 0 µM = 1) (hTPC1; 100 µM, individual patches): 0.4994 and 0.4103 and 0.291
- Dose-dependent inhibition of TPC1 (ITPC1, value at 0 µM = 1) (hTPC1; 100 µM, mean): 0.4003
- Dose-dependent inhibition of TPC1 (ITPC1, value at 0 µM = 1) (hTPC1; 300 µM, individual patches): 0.197 and 0.08086 and 0.1214
- Dose-dependent inhibition of TPC1 (ITPC1, value at 0 µM = 1) (hTPC1; 300 µM, mean): 0.1331
- IC50 (hTPC1; whole-endolysosome, n = 3 patches, read-out: IC50, inhibition of TPC1): 77 ± 2 µM
- ITPC2 (hTPC2; whole endolysosome recordings with 100 µM of LyNa-VAs at −120 mV): 1101 ± 508 pA
Molecule: CN(C)CCCN1c2ccccc2Sc2ccc(Cl)cc21 [LyNa-VA2.1, Chlorpromazine]
- current density ([1]; 10 µM): 11.2294 pA/pF and 9.959 pA/pF and 11.6261 pA/pF and 6.052 pA/pF
- current density ([1]; 20 µM): 17.6973 pA/pF and 20.0248 pA/pF and 34.5739 pA/pF and 9.104 pA/pF
- current density ([1]; 50 µM): 54.3211 pA/pF and 69.6612 pA/pF and 69.313 pA/pF and 27.4087 pA/pF
- current density ([1]; 100 µM): 137.55 pA/pF and 140.785 pA/pF and 150.409 pA/pF and 87.5478 pA/pF
- current density ([1]; 200 µM): 152.165 pA/pF and 168.074 pA/pF and 117.748 pA/pF

Molecule: ML-SA1
- activation of ITRPML1 in TPC1/2 DKO cells (in words) (TPC1/2 DKO HAP1 cells): readily activated ITRPML1
- current, whole-cell ITRPML1-4A [2]: 4274.3 pA and 5928.6 pA

- effect on whole-endolysosome ITPC1 (in words) (hTPC1): large enhancement at negative potentials
- inactivation of ITPC2, I500ms / I10ms (hTPC2; [3]): 1.002 and 0.9763 and 0.9931 and 0.9868
- inactivation of ITPC2, I500ms / I10ms (hTPC2; mean): 0.9895
- Rectification index of ITPC2, I+80mV/I-80mV (hTPC2; [3]): 0.8422 and 1.096 and 1.053 and 1.001
- Rectification index of ITPC2, I+80mV/I-80mV (hTPC2; PI(3,5)P2 0.3 µM, LyNa-VA1.2 100 µM, LyNA1 300 µM, mean): 1.00 ± 0.06
- Rectification index of ITPC2, I+80mV/I-80mV (hTPC2; PI(3,5)P2 0.3 µM, LyNa-VA1.2 100 µM, LyNA1 300 µM, mean, listed as pip2): 0.9981
- PX / PNa, Ca2+ (hTPC2; individual): 0.016 and 0.034
- PX / PNa, Na+ (hTPC2; individual): 0.9921 and 1.104 and 1
- PX / PNa, Ca2+ (hTPC2; mean): 0.022
- PX / PNa, K+ (hTPC2; mean): 0.05731
- PX / PNa, Na+ (hTPC2; mean): 1.032
- I@500ms/I@10ms (current decline at steady state) (hTPC2; voltage-step protocols, at all potentials): ~1.0
Molecule: PI(3,5)P2
- effect on ITPC1-R540I (in words) (hTPC1^R540I): large currents at all potentials
- PX / PNa, K+ (TPC2^N653G; individual): 0.5092 and 0.6027 and 0.4961 and 0.3927
- PX / PNa, K+ (TPC2^N653G; mean): 0.5002
- voltage dependence of TPC2 activation (in words) (hTPC2): voltage independent; also recorded: no apparent voltage-dependent activation
- PX / PNa, K+ (hTPC2; individual): 0.02921 and 0.09237 and 0.08877 and 0.01887
- activation of whole-endolysosome ITPC2 (in words) (hTPC2; bath application, symmetric Na^+): activated a large whole-endolysosome ITPC2 with linear I-V
